{"source": "paper PMC7034075", "about": "“Exploring structure-activity relationship of S-substituted 2-mercaptoquinazolin-4(3H)-one including 4-ethylbenzenesulfonamides as human carbonic anhydrase inhibitors” (Journal of Enzyme Inhibition and Medicinal Chemistry, 2020)", "test_in_all_cases": "stopped-flow CO2 hydrase assay", "type_in_all_cases": "biochemical", "key": {"[1]": {"target": "T1, hCA XII (Homo sapiens, UniProt O43570)", "T1 construct": "gene CA12; recombinant, obtained in-house", "T1 sequence (O43570 25-354)": "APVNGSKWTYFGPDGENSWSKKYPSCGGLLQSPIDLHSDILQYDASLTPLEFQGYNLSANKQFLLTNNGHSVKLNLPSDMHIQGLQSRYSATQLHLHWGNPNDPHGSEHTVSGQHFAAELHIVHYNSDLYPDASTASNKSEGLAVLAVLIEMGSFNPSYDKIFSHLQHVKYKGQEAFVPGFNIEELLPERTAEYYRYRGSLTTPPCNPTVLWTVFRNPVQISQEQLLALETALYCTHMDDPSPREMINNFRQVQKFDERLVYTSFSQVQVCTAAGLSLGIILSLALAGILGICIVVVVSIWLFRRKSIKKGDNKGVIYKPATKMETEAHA", "source_text": "stopped-flow CO2 hydrase assay on hCA XII"}, "[2]": {"target": "T2, hCA IX (Homo sapiens, UniProt Q16790)", "T2 construct": "gene CA9; recombinant, obtained in-house", "source_text": "stopped-flow CO2 hydrase assay on hCA IX"}, "[3]": {"target": "T3, hCA I (Homo sapiens, UniProt P00915)", "T3 construct": "gene CA1; recombinant, obtained in-house", "T3 sequence (P00915 2-261)": "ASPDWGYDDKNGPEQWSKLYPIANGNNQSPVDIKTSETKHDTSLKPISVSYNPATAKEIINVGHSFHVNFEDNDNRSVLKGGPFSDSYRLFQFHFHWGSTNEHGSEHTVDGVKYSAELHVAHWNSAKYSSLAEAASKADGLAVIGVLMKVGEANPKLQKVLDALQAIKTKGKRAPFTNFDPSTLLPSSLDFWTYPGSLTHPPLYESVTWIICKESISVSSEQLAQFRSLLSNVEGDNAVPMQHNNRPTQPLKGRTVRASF", "source_text": "stopped-flow CO2 hydrase assay on hCA I"}, "[4]": {"target": "T4, hCA II (Homo sapiens, UniProt P00918)", "T4 construct": "gene CA2; recombinant, obtained in-house", "source_text": "stopped-flow CO2 hydrase assay on hCA II"}, "[5]": {"conditions": "CO2 hydration, mean of […] assays"}}, "note": "Where two headings read alike, the source gives them in different places.", "data": [{"compound": "NS(=O)(=O)c1ccc(CCn2c(SCc3ccc(F)cc3)nc3ccccc3c2=O)cc1", "note": "[compound 9, 4-(2-(2-((4-Fluorobenzyl)thio)-4-oxoquinazolin-3(4H)-yl)ethyl)benzenesulfonamide]", "values": [{"measurement": "Ki", "setting": "[1]; [5]", "result": 17.2, "unit": "nM"}, {"measurement": "Ki", "setting": "[2]", "result": 28.9, "unit": "nM"}]}, {"compound": "NS(=O)(=O)c1ccc(CCn2c(SCc3ccc(Cl)cc3)nc3ccccc3c2=O)cc1", "note": "[compound 7, 4-(2-(2-((4-Chlorobenzyl)thio)-4-oxoquinazolin-3(4H)-yl)ethyl)benzenesulfonamide]", "values": [{"measurement": "Ki", "setting": "[1]", "result": 65.6, "unit": "nM"}, {"measurement": "Ki", "setting": "[2]", "result": 34.2, "unit": "nM"}]}, {"compound": "N#Cc1ccc(CSc2nc3ccccc3c(=O)n2CCc2ccc(S(N)(=O)=O)cc2)cc1", "note": "[compound 8, 4-(2-(2-((4-Cyanobenzyl)thio)-4-oxoquinazolin-3(4H)-yl)ethyl)benzenesulfonamide]", "values": [{"measurement": "Ki", "setting": "[1]", "result": 17.6, "unit": "nM"}, {"measurement": "Ki", "setting": "[2]", "result": 47.3, "unit": "nM"}]}, {"compound": "NS(=O)(=O)c1ccc(CCn2c(SCc3ccccc3)nc3ccccc3c2=O)cc1", "note": "[compound 5, 4-(2-(2-(Benzylthio)-4-oxoquinazolin-3(4H)-yl)ethyl)benzenesulfonamide]", "values": [{"measurement": "Ki", "setting": "[1]", "result": 38.4, "unit": "nM"}, {"measurement": "Ki", "setting": "[2]", "result": 50.7, "unit": "nM"}]}, {"compound": "NS(=O)(=O)c1ccc(CCn2c(SCc3ccc(Br)cc3)nc3ccccc3c2=O)cc1", "note": "[compound 6, 4-(2-(2-((4-Bromobenzyl)thio)-4-oxoquinazolin-3(4H)-yl)ethyl)benzenesulfonamide]", "values": [{"measurement": "Ki", "setting": "[1]", "result": 57, "unit": "nM"}, {"measurement": "Ki", "setting": "[2]", "result": 64.1, "unit": "nM"}]}, {"compound": "CSc1nc2ccccc2c(=O)n1CCc1ccc(S(N)(=O)=O)cc1", "note": "[compound 2, 4-(2-(2-(Methylthio)-4-oxoquinazolin-3(4H)-yl)ethyl)benzenesulfonamide]", "values": [{"measurement": "Ki", "setting": "[1]", "result": 3.1, "unit": "nM"}, {"measurement": "Ki", "setting": "[2]", "result": 9.5, "unit": "nM"}]}, {"compound": "NS(=O)(=O)c1ccc(CCn2c(SCCN3CCCCC3)nc3ccccc3c2=O)cc1", "note": "[compound 12, 4-(2-(4-Oxo-2-((2-(piperidin-1-yl)ethyl)thio)quinazolin-3(4H)-yl)ethyl)benzenesulfonamide]", "values": [{"measurement": "Ki", "setting": "[1]", "result": 20.2, "unit": "nM"}, {"measurement": "Ki", "setting": "[3]", "result": 532, "unit": "nM"}, {"measurement": "Ki", "setting": "[2]", "result": 22.4, "unit": "nM"}]}, {"compound": "NS(=O)(=O)c1ccc(CCn2c(SCCCN3C(=O)c4ccccc4C3=O)nc3ccccc3c2=O)cc1", "note": "[compound 13, 4-(2-(2-((3-(1,3-Dioxoisoindolin-2-yl)propyl)thio)-4-oxoquinazolin-3(4H)-yl)ethyl)benzenesulfonamide]", "values": [{"measurement": "Ki", "setting": "[1]", "result": 71.4, "unit": "nM"}, {"measurement": "Ki", "setting": "[3]", "result": 321, "unit": "nM"}, {"measurement": "Ki", "setting": "[2]", "result": 93.6, "unit": "nM"}, {"measurement": "Ki", "setting": "[4]", "result": 86.6, "unit": "nM"}]}, {"compound": "Cc1ccc(CSc2nc3ccccc3c(=O)n2CCc2ccc(S(N)(=O)=O)cc2)cc1", "note": "[compound 10, 4-(2-(2-((4-Methylbenzyl)thio)-4-oxoquinazolin-3(4H)-yl)ethyl)benzenesulfonamide]", "values": [{"measurement": "Ki", "setting": "[1]", "result": 28.2, "unit": "nM"}, {"measurement": "Ki", "setting": "[2]", "result": 57.1, "unit": "nM"}]}, {"compound": "CCSc1nc2ccccc2c(=O)n1CCc1ccc(S(N)(=O)=O)cc1", "note": "[compound 3, 4-(2-(2-(Ethylthio)-4-oxoquinazolin-3(4H)-yl)ethyl)benzenesulfonamide]", "values": [{"measurement": "Ki", "setting": "[1]", "result": 3.9, "unit": "nM"}, {"measurement": "Ki", "setting": "[2]", "result": 7.1, "unit": "nM"}]}, {"compound": "NS(=O)(=O)c1ccc(CCn2c(SCc3ccc([N+](=O)[O-])cc3)nc3ccccc3c2=O)cc1", "note": "[compound 11, 4-(2-(2-((4-Nitrobenzyl)thio)-4-oxoquinazolin-3(4H)-yl)ethyl)benzenesulfonamide]", "values": [{"measurement": "Ki", "setting": "[1]", "result": 25.6, "unit": "nM"}, {"measurement": "Ki", "setting": "[2]; [5]", "result": 19.3, "unit": "nM"}]}, {"compound": "N#CCSc1nc2ccccc2c(=O)n1CCc1ccc(S(N)(=O)=O)cc1", "note": "[compound 4, 4-(2-(2-((Cyanomethyl)thio)-4-oxoquinazolin-3(4H)-yl)ethyl)benzenesulfonamide]", "values": [{"measurement": "Ki", "setting": "[1]", "result": 8.6, "unit": "nM"}, {"measurement": "Ki", "setting": "[2]", "result": 12.6, "unit": "nM"}]}]}
